Results on 7 molecules are retold here after PubChem BioAssay (NCI).

Structures are written as SMILES. Where “and” joins values, the source holds several entries; their conditions need not be identical. Identical values can stand only once.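 Method: 48-hour compound exposure of cells in 96-well plates, five concentrations, linear interpolation of endpoints. The concentration for 50% growth inhibition is given as GI50. TGI: total growth inhibition.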

Experiment in all cases: inhibition of tumour cell growth, NCI panel, 48 h
Assay [1] deals with MDA-MB-231 breast.
For assay [2], the system named is COLO 205 colon.
Assay [3] has as its system SK-OV-3 ovarian.
Assay [4] deals with 786-0 renal.
The subject of assay [5] is UACC-62 melanoma.
Assay [6] has as its system UACC-257 melanoma.
Assay [7] deals with NCI-H226 lung.
Assay [8] deals with NCI-H460 lung.
The test system of assay [9] is MOLT-4 leukemia.
Assay [10] has as its system HOP-62 NSCLC.

For the molecule `N#CCCN(CCCN(CCCN(C(=O)Nc1ccccc1)c1ccccc1)C(=O)Nc1ccccc1)C(=O)Nc1ccccc1`, the GI50 in assay [1], in [2], in assay [3], in assay [4], in assay [5] and in [6] was above 100 µM in each case. The GI50 in assay [9] is 3.95 µM; in assay [10], above 100 µM. For the same molecule, the TGI in [1], in assay [2], in assay [3], in assay [4], in assay [5] and in assay [6] was above 100 µM each time. For the same molecule, the TGI in [7] was above 100 µM; in [8] it was above 8.75 µM; in assay [9], above 100 µM; in assay [10] it was above 100 µM.
As for `O=CN/C=C/c1cccc(O)c1`, the TGI is 99.2 µM in assay [1]; above 100 µM in [2]; above 100 µM in assay [3]; 83.7 µM in assay [4]; 63.3 µM in assay [5]; above 89.2 µM in assay [6]. In addition, the TGI in assay [7] is 89.2 µM; in assay [8], 77.6 µM; in assay [9], above 100 µM; in [10], 65.8 µM.
On to `Cc1cc(O)c(C2=NN(c3ccc(S(N)(=O)=O)cc3)C(c3ccccc3Cl)C2)cc1Cl` (stereo not drawn), for which the GI50 is 2.14 µM in assay [1]; 1.81 µM in assay [2]; 3.63 µM in [3]; 2.25 µM in assay [4]; 3.71 µM in assay [5]; 11.8 µM in [6]. For the same molecule, the GI50 in [7] is 3.02 µM; in assay [8] it was 2.16 µM; in assay [9], 4.04 µM; in [10], 2.03 µM. For the same molecule, the TGI stood at 4.52 µM in [1]; 3.31 µM in [2]; 10.4 µM in [3]; 4.52 µM in assay [4]; 14.4 µM in [5]; 79.6 µM in assay [6]. The TGI in assay [7] was 9.44 µM; in assay [8], 4.21 µM; in assay [9], above 100 µM; in assay [10], 4.16 µM.
Consider `CCCc1cc(=O)[nH]c(-n2nc(C)cc2C)n1`, for which the GI50 in assay [1] was 4.47 µM; in [2], 8.45 µM; in assay [3] it was 9.34 µM; in assay [4], 7.62 µM; in [5], 2.31 µM; in assay [6], 6.23 µM. The GI50 in assay [7] is 5.99 µM; in assay [8] it was 1.26 µM; in assay [9], 3.44 µM; in assay [10], 5.58 µM. The TGI in [1] is above 100 µM; in assay [2] it was above 100 µM; in [3] it was above 100 µM; in assay [4], above 100 µM; in assay [5], 35.7 µM; in [6], 40 µM. For the same molecule, the TGI was 55.6 µM in [7], above 100 µM in assay [8], above 100 µM in [9] and above 100 µM in [10].
Take `CCN(Cc1ccc(F)cc1)c1ccc(CO)c(F)c1`: the GI50 is 18.9 µM in [1]; 10.8 µM in [2]; 15.9 µM in [3]; 12.6 µM in assay [4]; 1.62 µM in assay [5]; 2.33 µM in assay [6]. In addition, the GI50 in assay [7] is 0.171 µM; in [8] it was 3.93 µM; in [9], 21.2 µM; in [10] it was 15.2 µM. Besides, the TGI in [1] was above 69 µM; in assay [2], 27.6 µM; in assay [3], 80.7 µM; in [4] it was 36.6 µM; in assay [5], 7.42 µM; in assay [6], 9.29 µM. Also, the TGI in assay [7] is 0.364 µM; in [8], 20.4 µM; in assay [9] it was 57.6 µM; in [10] it was above 100 µM.
With `COc1cc(NC(C)CCCN)c2ncccc2c1` (stereo not drawn), the TGI was above 100 µM in assay [1]; 41.2 µM and 64 µM in assay [2]; above 100 µM in [3]; above 100 µM in assay [4]; 51.9 µM and > 89.5 µM in assay [5]; 27.2 µM and 54.5 µM in assay [6]. Besides, the TGI in [7], in assay [8], in [9] and in [10] was above 100 µM in each case. Besides, the GI50 in [4] is 43.8 µM and > 88.2 µM; in assay [5], 20.3 µM and 45.3 µM; in assay [6] it was 11.3 µM and 30.2 µM; in [8], 32.8 µM and > 94.8 µM; in [10], 43.6 µM and > 91.6 µM.
As for `O=C(O)C1OC1(c1cccc(Cl)c1)c1ccccc1Cl` (stereo not drawn), the TGI in assay [1] is 35.8 µM; in [2], above 100 µM; in [3], 66.8 µM; in assay [4], above 100 µM; in assay [5], 35 µM; in assay [6], 70.6 µM. Further, the TGI in assay [7] was 83.8 µM; in [8], above 100 µM; in assay [9] it was 82.4 µM; in [10] it was 61.3 µM.
